Laboratory results as given in ChEMBL document CHEMBL3864183, “Development of ML390: A Human DHODH Inhibitor That Induces Differentiation in Acute Myeloid Leukemia” (ACS Med Chem Lett, 2016).
Converted amounts (≈) assume the structure as drawn.

Experiments:
[1] = tested on: U-937; experiment: Induction of human U937 cell differentiation after 4 days by flow cytometry; type: functional, cell-based; settings: U-937, 96 h
[2] = Induction of bone marrow cell differentiation isolated from ER-HOXA9 fusion protein expressed mouse harboring GFP-lysozyme assessed as upregulation of CD11b/MAC1 after 4 days by flow cytometry; type: functional, cell-based; settings: 96 h
[3] = target: Dihydroorotate dehydrogenase (quinone), mitochondrial (Homo sapiens, UniProt Q02127); experiment: Inhibition of human recombinant DHODH
Dihydroorotate dehydrogenase (quinone), mitochondrial, sequence (Q02127 whole entry): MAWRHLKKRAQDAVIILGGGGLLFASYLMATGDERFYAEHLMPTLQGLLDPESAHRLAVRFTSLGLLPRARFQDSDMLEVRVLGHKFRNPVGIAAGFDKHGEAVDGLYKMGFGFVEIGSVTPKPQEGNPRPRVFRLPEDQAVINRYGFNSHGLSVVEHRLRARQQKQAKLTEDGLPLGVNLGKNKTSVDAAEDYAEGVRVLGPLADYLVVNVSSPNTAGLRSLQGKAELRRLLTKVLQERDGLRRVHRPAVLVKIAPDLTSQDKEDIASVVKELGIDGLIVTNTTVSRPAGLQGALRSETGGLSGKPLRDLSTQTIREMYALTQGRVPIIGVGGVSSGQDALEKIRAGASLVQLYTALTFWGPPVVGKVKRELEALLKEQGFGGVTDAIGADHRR

[4] = tested on: THP-1; experiment: Induction of human THP1 cell differentiation after 4 days by flow cytometry; type: functional, cell-based; settings: THP-1, 96 h
[5] = Stability of the compound in PBS for 24 hrs; type: physicochemical; settings: buffer
[6] = Stability of the compound in human plasma for 5 hrs; type: ADME, cell-free
[7] = Solubility of the compound in PBS at pH 7.4; type: physicochemical
[8] = Protein binding in human plasma; type: ADME, cell-free; settings: read-out: PPB
[9] = Protein binding in mouse plasma; type: ADME, cell-free; settings: read-out: PPB

O=C(CCNC(=O)c1ccc(C(F)(F)F)cc1)N[C@@H]1CCCc2ccccc21
EC50 [1]: 2.7 µM | EC50 [2]: 3.6 µM | IC50 [3]: 0.91 µM | EC50 [4]: 2.5 µM

O=C(O)c1ccc(Cl)cc1Nc1ccccc1
EC50 [1]: > 20 µM | EC50 [2]: > 20 µM | IC50 [3]: > 20 µM | EC50 [4]: > 20 µM

COc1ccc(Nc2ccccc2C(=O)O)cc1
EC50 [1]: > 20 µM | EC50 [2]: > 20 µM | IC50 [3]: 10 µM | EC50 [4]: > 20 µM

O=C(CCNC(=O)c1ccc(Cl)c(Cl)c1)N[C@@H]1CCCc2ccccc21
EC50 [1]: 2.4 µM | EC50 [2]: 3.2 µM | IC50 [3]: 1.5 µM | EC50 [4]: 2.5 µM

O=C(CCCNC(=O)c1ccc(OC(F)(F)F)cc1)N[C@@H]1CCCc2ccccc21
IC50 [3]: > 20 µM

O=C(CCNC(=O)c1cccc(Cl)c1)N[C@@H]1CCCc2ccccc21
EC50 [1]: 8.8 µM | EC50 [2]: 7.9 µM | IC50 [3]: 7.4 µM | EC50 [4]: 6.5 µM

N#Cc1ccc(C(=O)NCCC(=O)N[C@@H]2CCCc3ccccc32)cc1
IC50 [3]: 8.9 µM

Cc1c(Nc2ncccc2C(=O)O)cccc1C(F)(F)F [FLUNIXIN]
EC50 [1]: > 20 µM | EC50 [2]: 16 µM | IC50 [3]: 8 µM | EC50 [4]: > 20 µM

Cc1c(-c2ccc(-c3ccccc3F)cc2)nc2ccc(F)cc2c1C(=O)O [BREQUINAR]
EC50 [1]: 0.044 µM | EC50 [2]: 0.51 µM | EC50 [4]: 0.094 µM

O=C(O)c1cccnc1Nc1ccccc1
EC50 [1]: > 20 µM | EC50 [2]: > 20 µM | IC50 [3]: 17.4 µM | EC50 [4]: > 20 µM

O=C(CCCNC(=O)c1ccc(C(F)(F)F)cc1)N[C@@H]1CCCc2ccccc21
IC50 [3]: > 20 µM

O=C(CCNC(=O)c1ccccc1)N[C@@H]1CCCc2ccccc21
IC50 [3]: 12.4 µM

O=C(CCNC(=O)c1ccc(OC(F)(F)F)cc1)N[C@@H]1CCCc2ccccc21
Stability [5]: Stable | Stability [6]: Stable | EC50 [1]: 8.8 µM | solubility [7]: 2.5 µM (≈ 1.02 µg/mL) | EC50 [2]: 1.8 µM | fraction unbound [8]: 0.01 | fraction unbound [9]: 0.01 | IC50 [3]: 0.56 µM | EC50 [4]: 6.5 µM

Cc1c(Cl)cccc1Nc1ncccc1C(=O)O [CLONIXIN]
EC50 [1]: > 20 µM | EC50 [2]: > 20 µM | IC50 [3]: 13 µM | EC50 [4]: > 20 µM

O=C(CNC(=O)c1ccc(Cl)cc1)N[C@@H]1CCCc2ccccc21
IC50 [3]: > 20 µM

O=C(O)c1cccnc1Nc1ccc(OC(F)(F)F)cc1
EC50 [1]: 5.6 µM | EC50 [2]: 3.7 µM | IC50 [3]: 0.5 µM | EC50 [4]: 7.7 µM

COc1ccc(C(=O)NCCC(=O)N[C@@H]2CCCc3ccccc32)cc1
EC50 [1]: 12 µM | EC50 [2]: 5 µM | IC50 [3]: 3.6 µM | EC50 [4]: 5.1 µM

O=C(CCNC(=O)c1ccc2c(c1)OC(F)(F)O2)N[C@@H]1CCCc2ccccc21
EC50 [1]: 4.4 µM | EC50 [2]: 4.7 µM | IC50 [3]: 2.7 µM | EC50 [4]: 4.3 µM

O=C(CNC(=O)c1ccc(C(F)(F)F)cc1)N[C@@H]1CCCc2ccccc21
IC50 [3]: > 20 µM

O=C(CCNC(=O)c1ccc(Cl)cc1)N[C@@H]1CCCc2ccccc21
EC50 [1]: 5.6 µM | EC50 [2]: 4.5 µM | IC50 [3]: 1.3 µM | EC50 [4]: 3.2 µM

O=C(O)c1cccnc1Nc1ccc(F)cc1
EC50 [1]: > 20 µM | EC50 [2]: > 20 µM | IC50 [3]: 2.8 µM | EC50 [4]: > 20 µM

O=C(CCCNC(=O)c1ccc(Cl)c(Cl)c1)N[C@@H]1CCCc2ccccc21
IC50 [3]: > 20 µM

O=C(O)c1ccccc1Nc1ccc(Cl)cc1
EC50 [1]: 17 µM | EC50 [2]: 10 µM | IC50 [3]: 0.42 µM | EC50 [4]: > 20 µM

O=C(O)c1cccnc1Nc1cccc(C(F)(F)F)c1 [NIFLUMIC ACID]
EC50 [1]: > 20 µM | EC50 [2]: > 20 µM | IC50 [3]: 17 µM | EC50 [4]: > 20 µM

O=C(O)c1cccnc1Nc1ccc(Cl)cc1
EC50 [1]: 6.1 µM | EC50 [2]: 3 µM | IC50 [3]: 0.4 µM | EC50 [4]: 10.7 µM

O=C(CCCNC(=O)c1ccc(Cl)cc1)N[C@@H]1CCCc2ccccc21
IC50 [3]: > 20 µM

O=C(CCNC(=O)c1ccc(F)cc1)N[C@@H]1CCCc2ccccc21
IC50 [3]: 9.5 µM

O=C(CNC(=O)c1ccc(OC(F)(F)F)cc1)N[C@@H]1CCCc2ccccc21
IC50 [3]: > 20 µM

Cc1ccc(C(=O)NCCC(=O)N[C@@H]2CCCc3ccccc32)cc1
EC50 [1]: 4.2 µM | EC50 [2]: 8.1 µM | IC50 [3]: 1.9 µM | EC50 [4]: 2.7 µM

O=C(CNC(=O)c1ccc(Cl)c(Cl)c1)N[C@@H]1CCCc2ccccc21
IC50 [3]: > 20 µM
